Where a name gives a salt, the structure may show the parent alone.
Assays:
Phakopsora pachyrhizi = Phakopsora pachyrhizi test in soybean (greenhouse, preventive activity, disease severity rating); format: in vivo; settings: preventive spray on soybean, compared to the untreated check
Procedure, shortened: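 Greenhouse-raised young soybean plants sprayed with compound at stated rates, then inoculated one day later with 2.1×10^6 P. pachyrhizi spores and held at 25° C, 90% RH. Disease severity (0-100%) rated visually 3, 7, 10 and 15 days after application; % control calculated versus untreated plants.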

Alternaria solani = Alternaria solani (early blight of tomato/potato) in vitro test, radial growth on Potato Dextrose Agar; format: cell-based; settings: 168 h, compared to the untreated check, radial growth after seven days, read-out: control
Rhizoctonia solani = Rhizoctonia solani (rice sheath blight/potato black scurf) in vitro test, radial growth on Potato Dextrose Agar; format: cell-based; settings: 168 h, compared to the untreated check, radial growth after seven days, read-out: control
Colletotrichum capsici = Colletotrichum capsici (anthracnose) in vitro test, radial growth on Potato Dextrose Agar; settings: Colletotrichum truncatum, 168 h, read-out: control
Description: Compounds were dissolved in 0.3% DMSO and then added to Potato Dextrose Agar medium just prior to dispensing it into petri dishes. 5 mL medium with compound in the desired concentration was dispensed into 60 mm sterile petri-plates. After solidification, each plate was seeded with a 5 mm size mycelial disc taken form the periphery of an actively growing virulent culture plate. Plates were incubated in growth chambers at 25° C. temperature and 60% relative humidity for seven days and radial growth was measured.

Pyricularia oryzae = experiment: microbe, parasite or virus in culture; format: cell-based; settings: 168 h, read-out: control
Corynespora cassicola = Corynespora cassicola (leaf spot of tomato) in vitro test, radial growth on Potato Dextrose Agar; format: cell-based; settings: 168 h, compared to the untreated check, radial growth after seven days, read-out: control
Botrytis cinerea = Botrytis cinerea (gray mold) in vitro test, radial growth on Potato Dextrose Agar; format: cell-based; settings: 168 h, compared to the untreated check, radial growth after seven days, read-out: control

Row | Structure (SMILES) | pest or weed control at 500 ppm (Phakopsora pachyrhizi) [%] | inhibition of growth at 300 ppm (Alternaria solani) [%] | inhibition of growth at 300 ppm (Rhizoctonia solani) [%] | inhibition of growth at 300 ppm (Colletotrichum capsici) [%] | inhibition of growth at 300 ppm (Pyricularia oryzae) [%] | inhibition of growth at 300 ppm (Corynespora cassicola) [%] | inhibition of growth at 300 ppm (Botrytis cinerea) [%]
1 | O=C(c1ccncc1)N1CC[C@H](Oc2ccc(-c3noc(C(F)(F)F)n3)cn2)C1 [Compound 49, (S)-pyridin-4-yl(3-((5-(5-(trifluoromethyl)-1,2,4-oxadiazol-3-yl)pyridin-2-yl)oxy)pyrrolidin-1-yl)methanone] | > 70 | > 70 | > 70 | > 70 | > 70 |  | 
2 | Cc1ccc(C(=O)N2CC(N(C)c3ccc(-c4noc(C(F)(F)F)n4)cc3)C2)cc1 [Compound 97, (3-(methyl(4-(5-(trifluoromethyl)-1,2,4-oxadiazol-3-yl)phenyl)amino)azetidin-1-yl)(p-tolyl)methanone] |  | > 70 |  |  | > 70 |  | 
3 | FC(F)(F)c1nc(-c2ccc(OC3CCNCC3)cc2)no1 [Compound 85, 3-(4-(piperidin-4-yloxy)phenyl)-5-(trifluoromethyl)-1,2,4-oxadiazole Hydrochloride] | > 70 | > 70 | > 70 |  | > 70 | > 70 | 
4 | COc1ccc(C(=O)N2CC(N(C)c3ccc(-c4noc(C(F)(F)F)n4)cc3)C2)cc1 [Compound 98, (4-methoxyphenyl)(3-(methyl(4-(5-(trifluoromethyl)-1,2,4-oxadiazol-3-yl)phenyl)amino)azetidin-1-yl)methanone] |  | > 70 |  |  | > 70 |  | 
5 | COc1cccc(CC(=O)N2CC[C@H](Oc3ccc(-c4noc(C(F)(F)F)n4)cc3)C2)c1 [Compound 24, (S)-2-(3-methoxyphenyl)-1-(3-(4-(5-(trifluoromethyl)-1,2,4-oxadiazol-3-yl)phenoxy)pyrrolidin-1-yl)ethan-1-one] | > 70 | > 70 |  |  |  |  | 
6 | O=C(c1ccc(F)cc1)N1CCC(Oc2cccc(-c3noc(C(F)(F)F)n3)c2)C1 (centres unmarked) [Compound 134, (4-fluorophenyl)(3-(3-(5-(trifluoromethyl)-1,2,4-oxadiazol-3-yl)phenoxy)pyrrolidin-1-yl)methanone] |  | > 70 |  |  | > 70 |  | 
7 | CC(C)S(=O)(=O)N1CC[C@H](Oc2ccc(-c3noc(C(F)(F)F)n3)cc2)C1 [Compound 136, (S)-3-(4-((1-(isopropylsulfonyl)pyrrolidin-3-yl)oxy)phenyl)-5-(trifluoromethyl)-1,2,4-oxadiazole] |  |  |  | > 70 |  |  | 
8 | COc1cccc(C(=O)N2CC[C@H](Oc3ccc(-c4noc(C(F)(F)F)n4)cc3)C2)c1 [Compound 1, (S)-(3-methoxyphenyl)(3-(4-(5-(trifluoromethyl)-1,2,4-oxadiazol-3-yl)phenoxy)pyrrolidin-1-yl)methanone] | > 70 | > 70 |  |  |  |  | 
9 | O=C(c1cccnc1)N1CC[C@H](Oc2ccc(-c3noc(C(F)(F)F)n3)cn2)C1 [Compound 48, (S)-pyridin-3-yl(3-((5-(5-(trifluoromethyl)-1,2,4-oxadiazol-3-yl)pyridin-2-yl)oxy)pyrrolidin-1-yl)methanone] | > 70 | > 70 | > 70 |  | > 70 |  | > 70
10 | CN(c1ccc(-c2noc(C(F)(F)F)n2)cc1)C1CN(C(=O)c2ccccc2)C1 [Compound 87, (3-(methyl(4-(5-(trifluoromethyl)-1,2,4-oxadiazol-3-yl)phenyl)amino)azetidin-1-yl)(phenyl)methanone] | > 70 |  |  | > 70 |  |  | 
11 | FC(F)(F)c1nc(-c2ccc(O[C@H]3CCN(Cc4ccccc4)C3)cc2)no1 [Compound 137, (S)-3-(4-((1-benzylpyrrolidin-3-yl)oxy)phenyl)-5-(trifluoromethyl)-1,2,4-oxadiazole] |  | > 70 | > 70 |  | > 70 | > 70 | 
12 | O=C(c1cccc(F)c1)N1CCC(Oc2cccc(-c3noc(C(F)(F)F)n3)c2)C1 (centres unmarked) [Compound 133, (3-fluorophenyl)(3-(3-(5-(trifluoromethyl)-1,2,4-oxadiazol-3-yl)phenoxy)pyrrolidin-1-yl)methanone] |  | > 70 |  |  | > 70 |  | 
13 | O=C(c1ccccc1F)N1CCC(Oc2cccc(-c3noc(C(F)(F)F)n3)c2)C1 (centres unmarked) [Compound 132, (2-fluorophenyl)(3-(3-(5-(trifluoromethyl)-1,2,4-oxadiazol-3-yl)phenoxy)pyrrolidin-1-yl)methanone] |  | > 70 |  |  |  |  | 
14 | CC(C)(C)OC(=O)N1CC[C@H](Oc2ccc(-c3noc(C(F)(F)F)n3)cc2F)C1 [Compound 60, tert-butyl-(S)-3-(2-fluoro-4-(5-(trifluoromethyl)-1,2,4-oxadiazol-3-yl)phenoxy)pyrrolidine-1-carboxylate] | > 70 |  |  |  | > 70 |  | 
15 | O=C(c1cscn1)N1CC[C@H](Oc2ccc(-c3noc(C(F)(F)F)n3)cn2)C1 [Compound 200, (S)-thiazol-4-yl(3-((5-(5-(trifluoromethyl)-1,2,4-oxadiazol-3-yl)pyridin-2-yl)oxy)pyrrolidin-1-yl)methanone] |  | > 70 |  | > 70 | > 70 |  | 
16 | FC(F)(F)c1nc(-c2ccc(N(c3ccc(-c4noc(C(F)(F)F)n4)cc3)C3CNC3)cc2)no1 [Compound 86, N,N-bis(4-(5-(trifluoromethyl)-1,2,4-oxadiazol-3-yl)phenyl)azetidin-3-amine Hydrochloride] | > 70 | > 70 |  |  |  |  | 
17 | CC(=O)N1CC[C@H](Oc2ccc(-c3noc(C(F)(F)F)n3)c(F)c2)C1 [Compound 68, (S)-1-(3-(3-fluoro-4-(5-(trifluoromethyl)-1,2,4-oxadiazol-3-yl)phenoxy)pyrrolidin-1-yl)ethan-1-one] |  | > 70 | > 70 | > 70 | > 70 |  | > 70
18 | CCS(=O)(=O)N1CC[C@H](Oc2ccc(-c3noc(C(F)(F)F)n3)cc2F)C1 [Compound 61, (S)-3-(4-((1-(ethylsulfonyl)pyrrolidin-3-yl)oxy)-3-fluorophenyl)-5-(trifluoromethyl)-1,2,4-oxadiazole] | > 70 |  |  |  | > 70 |  | 
19 | COc1ccc(C(=O)N2CC[C@H](Oc3ccc(-c4noc(C(F)(F)F)n4)cc3)C2)cn1 [Compound 56, (S)-(6-methoxypyridin-3-yl)(3-(4-(5-(trifluoromethyl)-1,2,4-oxadiazol-3-yl)phenoxy)pyrrolidin-1-yl)methanone] | > 70 |  |  |  | > 70 |  | 
20 | CN(c1ccc(-c2noc(C(F)(F)F)n2)cc1)C1CN(C(=O)c2cccc(F)c2)C1 [Compound 96, (3-fluorophenyl)(3-(methyl(4-(5-(trifluoromethyl)-1,2,4-oxadiazol-3-yl)phenyl)amino)azetidin-1-yl)methanone] |  | > 70 |  | > 70 | > 70 |  | 
21 | FC(F)(F)c1nc(-c2ccc(S[C@@H]3CCNC3)cc2)no1 [Compound 158, (R)-3-(4-(pyrrolidin-3-ylthio)phenyl)-5-(trifluoromethyl)-1,2,4-oxadiazole Hydrochloride] |  | > 70 |  |  |  | > 70 | 
22 | O=C(c1ccccc1F)N1CC[C@H](Oc2ccc(-c3noc(C(F)(F)F)n3)cc2)C1 [Compound 6, (S)-(2-fluorophenyl)(3-(4-(5-(trifluoromethyl)-1,2,4-oxadiazol-3-yl)phenoxy)pyrrolidin-1-yl)methanone] |  | > 70 |  |  |  |  | 
23 | O=C(Cc1ccccc1)N1CC[C@H](Oc2ccc(-c3noc(C(F)(F)F)n3)cc2)C1 [Compound 11, (S)-2-phenyl-1-(3-(4-(5-(trifluoromethyl)-1,2,4-oxadiazol-3-yl)phenoxy)pyrrolidin-1-yl)ethan-1-one] | > 70 |  |  |  | > 70 |  | 
24 | O=C(c1cccnc1)N1CC[C@H](Oc2ccc(-c3noc(C(F)(F)F)n3)cc2F)C1 [Compound 58, (S)-(3-(2-fluoro-4-(5-(trifluoromethyl)-1,2,4-oxadiazol-3-yl)phenoxy)pyrrolidin-1-yl)(pyridin-3-yl)methanone] |  | > 70 |  |  | > 70 |  | 
25 | CN(c1ccc(-c2noc(C(F)(F)F)n2)cc1)C1CN(C(=O)Cc2ccccc2)C1 [Compound 99, 1-(3-(methyl(4-(5-(trifluoromethyl)-1,2,4-oxadiazol-3-yl)phenyl)amino)azetidin-1-yl)-2-phenylethan-1-one] |  | > 70 |  |  | > 70 |  | 
26 | COc1ccc(CC(=O)N2CC[C@H](Oc3ccc(-c4noc(C(F)(F)F)n4)cc3)C2)cc1OC [Compound 5, (S)-2-(3,4-dimethoxyphenyl)-1-(3-(4-(5-(trifluoromethyl)-1,2,4-oxadiazol-3-yl)phenoxy)pyrrolidin-1-yl)ethan-1-one] | > 70 |  |  |  | > 70 |  | 
27 | O=C(c1ccncc1)N1CC[C@H](Oc2ccc(-c3noc(C(F)(F)F)n3)cc2F)C1 [Compound 59, (S)-(3-(2-fluoro-4-(5-(trifluoromethyl)-1,2,4-oxadiazol-3-yl)phenoxy)pyrrolidin-1-yl)(pyridin-4-yl)methanone] | > 70 | > 70 | > 70 | > 70 | > 70 |  | > 70
